Measured values taken from patent publication US7888328B2, “Oral formulations of cladribine” (Ares Trading S.A., priority 2003, dated 2011).
Values after ≈ are worked out from the molar mass of the structure shown.

Experiments:
[1] = Phase solubility study of cladribine in HPβCD solutions; assay type: physicochemical; settings: aqueous hydroxypropyl-β-cyclodextrin (HPβCD) solution, aqueous with cosolvent or surfactant or cyclodextrin, thermodynamic from solid; with about 0.14 mole of HPβCD; complexation conditions of EXAMPLE 2; read-out: cladribine maintained dissolved (phase solubility)
Protocol: Generally, the complexation is conducted with heating, for example at about 45 to about 60° C. for a significant period of time, e.g., at least 6-9 hours; it is believed that even better results can be obtained by heating at up to about 80° C. for up to 24 hours. Excess precipitated cladribine is then removed and the cladribine concentration is subsequently measured. This concentration represents the amount of cladribine solubilized for a given amorphous cyclodextrin concentration. […] Consequently, the data points correspond to the amount of cladribine dissolved in aqueous HPβCD or other amorphous cyclodextrin under the selected conditions; when later lyophilized, the solution yields a complex cladribine-cyclodextrin complex which is an intimate amorphous admixture of (a) an amorphous inclusion complex of cladribine with an amorphous cyclodextrin and (b) amorphous free cladribine associated with amorphous cyclodextrin as a non-inclusion complex. If equilibrium conditions are reached during the complexation, the amorphous cladribine-cyclodextrin complex will be saturated with cladribine.
A phase solubility study can be carried out as follows. […] The excess, undissolved cladribine is removed by filtration. […] This process is repeated with different known concentrations of HPβCD until several data points are obtained. […]

[2] = Clinical study, relative bioavailability: plasma cladribine after oral formulations vs subcutaneous administration; assay type: in vivo, human (patients with MS); settings: human, sc, 3.0 mg subcutaneous, single dose, n = 12
Protocol: This study was a 2 center, open-label, randomized, 4-way crossover single dose study using twelve patients with MS. Patients received randomly three different fixed oral doses (3.0 mg) and a fixed subcutaneous dose of 3.0 mg. The four treatment days were separated by a drug-free interval of at least 5 days. In each treatment period, blood samples were collected over a 24-hour period for evaluation of plasma cladribine.
The plasma concentration of cladribine was measured by a HPLC/MS/MS method. […] The limit of quantification was 100 pg/ml. Analysis of samples was carried out in 16 runs.
576 clinical plasma samples were analyzed and concentration values of cladribine were determined.

[3] = Clinical study, dose response and absolute bioavailability: plasma cladribine after oral doses vs intravenous infusion; assay type: in vivo, human (patients with MS); settings: n = 26; for AUC(0-inf) / AUC(0-t) / Cmax / Tmax / half-life: human, plasma; for AUC(0-inf) / AUC(0-t) / Cmax: Geom Mean; for Tmax / half-life: Mean ± SD
Source text: The objective of this study was to assess the systemic availability of cladribine after oral administration in two different fixed oral doses, in comparison with one fixed intravenous administration (reference formulation) in patients with MS (multiple sclerosis), and to evaluate the safety and tolerability of cladribine in this population.
This study was a 3 center, open-label, randomized, 3-way crossover single dose study using twenty-six patients with MS. […] The three treatment days were separated by a drug-free interval of at least 5 days. In each treatment period blood samples were collected over a 24-hour period for evaluation of plasma cladribine.
The plasma concentrations of cladribine were measured by a HPLC/MS/MS method. […] The limit of quantification was 100 pg/ml. Analysis of samples was carried out in 16 runs. Except the first run (which had to be rejected because of equipment failure), all other runs could be accepted. No calibrator had to be excluded from fitting of the calibration curve and accuracy of each quality control sample met the GLP requirements.
858 clinical plasma samples were analyzed and concentration values of cladribine were determined. The results were compiled and are summarized in the tables below [TABLES VII through X]. In these tables, the following definitions are applicable: Tmax is the time to reach maximum concentration in the plasma; T1/2 is the half-life of cladribine in the plasma; Cmax is the maximum concentration of cladribine in the plasma; AUCinf is the area under the curve for the measured data from zero extrapolated to infinity; AUCt is the area under the curve for the measured data (from zero to the last time point); Geom Mean is the geometric mean; CV is the coefficient of variation (relative standard deviation); LL is the lower limit; UL is the upper limit; σ^2 is the mean variance; σB^2 is the mean variance between subjects; σW^2 is the mean variance within subjects; CVT is the total coefficient of variation; and CVW is the coefficient of variation within subjects.

[4] = Oral Administration 10.0 mg vs 3.0 mg IV, dose normalized
[5] = Oral Administration 30.0 mg vs 3.0 mg IV, dose normalized
[6] = Oral Administration 3.0 mg (Batch N0120 3.0 mg tablets)
[7] = Oral Administration 10.0 mg (Batch N0126 10.0 mg tablets)

## Nc1nc(Cl)nc2c1ncn2[C@H]1C[C@H](O)[C@@H](CO)O1 [Cladribine, 2-chloro-2′-deoxyadenosine]
[1]
  solubility: ~49 mM (≈ 14 mg/mL)
[2]; Geom Mean
  AUC(0-inf): 57.3 ng·h/mL
  AUC(0-t): 54.7 ng·h/mL
  Cmax: 23.2 ng/mL
[2]; Mean ± SD
  Tmax: 0.313 ± 0.113 h
  half-life: 6.69 ± 2.01 h
[3]; [4]
  Ratio of Oral to I.V. AUCinf: 39.1
  Ratio of Oral to I.V. AUCt: 39.4
[3]; [5]
  Ratio of Oral to I.V. AUCinf: 34.5
  Ratio of Oral to I.V. AUCt: 34.0
[3]; dose-adjusted PK parameter
  CVT (total coefficient of variation) of AUCinf: 29.2%
  CVT (total coefficient of variation) of AUCt: 29.8%
  CVT (total coefficient of variation) of Cmax: 43.0%
  CVW (coefficient of variation within subjects) of AUCinf: 18.3%
  CVW (coefficient of variation within subjects) of AUCt: 19.1%
  CVW (coefficient of variation within subjects) of Cmax: 37.5%
[3]; 3.0 mg IV infusion (1 hour)
  AUC(0-inf): 58.5 ng·h/mL
  AUC(0-t): 56.4 ng·h/mL
  Cmax: 21.4 ng/mL
  Tmax: 0.817 ± 0.397 h
  half-life: 6.5 ± 1.27 h
[3]; [6]
  AUC(0-inf): 20.2 ng·h/mL
  AUC(0-t): 19.2 ng·h/mL
  Cmax: 5.61 ng/mL
  Tmax: 0.548 ± 0.3 h
  half-life: 5.85 ± 1.18 h
[3]; [7]
  AUC(0-inf): 76.7 ng·h/mL
  AUC(0-t): 74.5 ng·h/mL
  Cmax: 21.2 ng/mL
  Tmax: 0.558 ± 0.204 h
  half-life: 5.6 ± 0.75 h
[3]; oral doses, dose normalized
  Ratio 10.0 mg/3.0 mg AUCinf: 113.3
  Ratio 10.0 mg/3.0 mg AUCt: 115.8
  Ratio 10.0 mg/3.0 mg Cmax: 112.6
